Assay results: patent US12060588B2, “Methods of editing DNA methylation” (Whitehead Institute for Biomedical Research, priority 2016, dated 2024)

System: Snrpn promoter (IG-DMR GFP/Pat reporter), skin dermal cells
Test: In vivo activation of the IG-DMR GFP/Pat reporter in mouse skin (lentiviral delivery)
Excerpt: FIGS. 7A-7H depict targeted ex vivo and in vivo DNA methylation editing by dCas9-Tet1 to activate a silenced GFP reporter. FIG. 7A provides a schematic diagram illustrating the experimental procedure for the ex vivo activation of a silenced GFP reporter in mouse fibroblast cells. Mouse tail fibroblast cells were derived from a genetically modified mouse line carrying a paternal IG-DMR-Snrpn-GFP allele (IG-DMRGFP/Pat) in the Dlk1-Dio3 locus. The IG-DMR-Snrpn promoter on the paternal allele is hypermethylated so that the GFP reporter is constitutively silenced. The cultured fibroblast cells were infected with lentiviral vectors expressing dCas9-Tet1 and gRNAs to demethylate the Snrpn promoter and activate the GFP reporter. Cells are subject to imaging and FACS analysis. […] Stained in red for Cherry, green for GFP and DAPI for nuclei. Scale bar: 100 um. […] Brains were sliced and analyzed by immunohistochemical approaches. […] FIGS. 7G-7H provide quantification of the percentage of IG-DMR^GFP/Pat cells with GFP activation in Cherry (gRNAs) positive cells in the in vivo lentiviral delivery experiment in the brain (FIG. 7G) and in the skin epidemis (FIG. 7H). […]
FIGS. 14A-14F depict activation of IG-DMR^GFP/Pat reporter in mouse skin cells by dCas9-Tet1 mediated demethylation. […] Note red auto-fluorescence on the left edges of the epidermis. […]

dC-dT: dCas9 fused to an inactive mutant form of Tet1 (H1672Y, D1674A), SEQ ID NO: 160
GFP reporter activation in infected (Cherry positive) skin dermal cells in vivo (with Snrpn gRNAs, lentiviral injection into dermal sites, 3 days): did not activate GFP reporter expression

dCas9-Tet1: catalytically inactive Cas9 (dCas9) fused through NLS to the Tet1 catalytic domain, SEQ ID NO: 159; lentivirally expressed with gRNAs
GFP reporter activation in infected skin dermal cells in vivo (with a scrambled gRNA): did not activate GFP reporter expression
